Results on two compounds are retold here after patent US9745273B2, “Phenazine derivatives as anti-neoplastic agents and anti-infective agents” (Universitetet I Oslo, priority 2013, dated 2017).

One data set relates to mouse sarcoma model. Particulars: in vivo; cited from earlier work.
The test system of data set [1] is peripheral blood leukocytes (PBL). To be noted: at comparable anti-AML activity; cited from earlier work.
Data set [2] is described as follows: Solubility in biocompatible and organic solvents. In kind it is physicochemical. The source says: However, production of nano-carriers by emulsion-evaporation merit that the compound to be encapsulated must be dissolved in an organic solvent that is immiscible with water. The present invention enables the production of iodinin-encapsulated nanocarriers—iodinin and a biodegradable polymer can be dissolved in chloroform and mixed with water to make a nano-suspension, and organic solvent evaporated to co-precipitate the polymer with iodinin. To improve the nanonization of iodinin, a polymer can be precipitated to produce nanoparticles. The advantage of incorporating iodinin itself into a biodegradable polymer is that the drug load in the formulation may be higher. The particles may be coated with monoclonal antibodies, e.g. CD11 or CD33 against AML.

Another data set deals with certain other bacteria. To be noted: cited from earlier work.
Another data set relates to rat cardiomyoblasts. To be noted: at comparable anti-AML activity; cited from earlier work.
Another data set relates to blood platelets. To be noted: at comparable anti-AML activity; cited from earlier work.
Data set [3] has as its system leukaemia cell lines and AML-patient blasts. To be noted: cited from earlier work.
The nature of a further data set: Solubility in water. It counts as physicochemical. The source says: In the prior art, these problems are not properly addressed. […] In DE 2016467, DE 2115660, U.S. Pat. No. 3,929,790, U.S. Pat. No. 3,937,707, WO 2008/089283, and in Alonso et al, Chem. Comm. 2004, 41, 412-413, methods to alkylate iodinin or myxin via their alkali salts is described. However, the functional groups introduced were alkyl groups, rendering the derivatives less water soluble than the parent compounds. No discussion of improvement in water solubility was described.

A further data set relates to intestinal mucosa. To be noted: mouse, direct infusion of supra-saturated solution into the gut through a tube; cited from earlier work.

Take `[O-][n+]1c2cccc(O)c2[n+]([O-])c2cccc(O)c21` [iodinin, 1,6-dihydroxyphenazine-5,10-dioxide]: the “activity against a mouse sarcoma model” value with mouse sarcoma model is listed as “low activity”. Moreover, the “toxicity towards peripheral blood leukocytes (PBL) versus DNR” value in data set [1] is “less toxic than DNR”. The “solubility in biocompatible solvents” value in data set [2] (biocompatible solvents) was “poorly soluble”. In addition, the “solubility in organic solvents” value in data set [2] (organic solvents such as toluene and chloroform) is “soluble”. Further, the “inhibition of growth of other bacteria” value with certain other bacteria is on record as “inhibit the growth”. Moreover, in the data set on rat cardiomyoblasts, the “toxicity towards rat cardiomyoblasts versus DNR” value is “less toxic than DNR”. In addition, in the data set on blood platelets, the “toxicity towards blood platelets versus DNR” value was “less toxic than DNR”. Moreover, the “potency against leukaemia cell lines and AML-patient blasts” value in data set [3] was “particularly potent”. Further, the “effect on AML cells” value in data set [3] (iodinin extracted from marine actinomycetes bacteria) was “pronounced effect”. Also, in “Solubility in water”, the solubility in water result is “practically insoluble”. In addition, the “intestinal symptoms / histological alteration of the intestinal mucosa” value with intestinal mucosa is “failed to cause any intestinal symptoms or histologically detectable alteration of the intestinal mucosa”.

Turning to `COc1cccc2c1[n+]([O-])c1cccc(O)c1[n+]2[O-]` [myxin], the “activity against a mouse sarcoma model” value in the data set on mouse sarcoma model is listed as “low activity”. Besides, the solubility in water entry in “Solubility in water” is “practically insoluble”.
